In US10898475B2, “Bach1 inhibitors in combination with Nrf2 activators and pharmaceutical compositions thereof” (vTv Therapeutics LLC, priority 2014, dated 2021):
Several values for one entry are separate records, joined by “and”; a condition that tells them apart may be missing. Identical values can stand only once. Counter-ions that a name gives are not always drawn.

Tested on: HMOX1 in Normal Human Lung Fibroblasts (NHLF)
Experiment: HMOX1 Protein Expression (immunostaining, fold induction or % positive cells over DMSO)
Conditions: for Hill slope of DMF dose response curves in Table 2: % Positive HMOX
[1] = Homo sapiens, Fibroblast, read-out: Fold Induction of HMOX

SMILES: COCCNC(=O)c1cnc2c(c1)nc(Nc1nc3ccc(OC(F)(F)F)cc3s1)n2C [HPP-B, 3-Methyl-2-(6-trifluoromethoxy-benzothiazol-2-ylamino)-3H-imidazo[4,5-b]pyridine-6-carboxylic acid (2-methoxy-ethyl)-amide]
- Hill slope of DMF dose response curves in Table 2 (Bach1 Inhibitor Conc. 0.019 uM): 2.14
- Hill slope of DMF dose response curves in Table 2 (Bach1 Inhibitor Conc. 0.039 uM): 1.87
- Hill slope of DMF dose response curves in Table 2 (Bach1 Inhibitor Conc. 0.078 uM): 1.25
- Hill slope of DMF dose response curves in Table 2 (Bach1 Inhibitor Conc. 0.156 uM): 1.12
- % Cells Positive HMOX (Cpd. 0.019 uM, DMF 0 uM): 2.31%
- Fold Induction of HMOX (Cpd. 0.019 uM, DMF 0 uM): 1.24 fold
- % Cells Positive HMOX (Cpd. 0.019 uM, DMF 0.03 uM): 1.80%
- Fold Induction of HMOX (Cpd. 0.019 uM, DMF 0.03 uM): 1.17 fold
- % Cells Positive HMOX (Cpd. 0.019 uM, DMF 0.1 uM): 2.55%
- Fold Induction of HMOX (Cpd. 0.019 uM, DMF 0.1 uM): 1.13 fold
- % Cells Positive HMOX (Cpd. 0.019 uM, DMF 0.3 uM): 8.27%
- Fold Induction of HMOX (Cpd. 0.019 uM, DMF 0.3 uM): 1.43 fold
- % Cells Positive HMOX (Cpd. 0.019 uM, DMF 1 uM): 7.52%
- Fold Induction of HMOX (Cpd. 0.019 uM, DMF 1 uM): 1.57 fold
- % Cells Positive HMOX (Cpd. 0.019 uM, DMF 3 uM): 54.65%
- Fold Induction of HMOX (Cpd. 0.019 uM, DMF 3 uM): 2.98 fold
- % Cells Positive HMOX (Cpd. 0.019 uM, DMF 10 uM): 92.63%
- Fold Induction of HMOX (Cpd. 0.019 uM, DMF 10 uM): 4.94 fold
- % Cells Positive HMOX (Cpd. 0.019 uM, DMF 30 uM): 84.93%
- Fold Induction of HMOX (Cpd. 0.019 uM, DMF 30 uM): 4.23 fold
- % Cells Positive HMOX (Cpd. 0.039 uM, DMF 0 uM): 5.30%
- Fold Induction of HMOX (Cpd. 0.039 uM, DMF 0 uM): 1.45 fold
- % Cells Positive HMOX (Cpd. 0.039 uM, DMF 0.03 uM): 1.53%
- Fold Induction of HMOX (Cpd. 0.039 uM, DMF 0.03 uM): 1.07 fold
- % Cells Positive HMOX (Cpd. 0.039 uM, DMF 0.1 uM): 2.54%
- Fold Induction of HMOX (Cpd. 0.039 uM, DMF 0.1 uM): 1.08 fold
- % Cells Positive HMOX (Cpd. 0.039 uM, DMF 0.3 uM): 13.04%
- Fold Induction of HMOX (Cpd. 0.039 uM, DMF 0.3 uM): 1.59 fold
- % Cells Positive HMOX (Cpd. 0.039 uM, DMF 1 uM): 23.13%
- Fold Induction of HMOX (Cpd. 0.039 uM, DMF 1 uM): 1.97 fold
- % Cells Positive HMOX (Cpd. 0.039 uM, DMF 3 uM): 75.79%
- Fold Induction of HMOX (Cpd. 0.039 uM, DMF 3 uM): 2.84 fold
- % Cells Positive HMOX (Cpd. 0.039 uM, DMF 10 uM): 91.99%
- Fold Induction of HMOX (Cpd. 0.039 uM, DMF 10 uM): 4.86 fold
- % Cells Positive HMOX (Cpd. 0.039 uM, DMF 30 uM): 87.54%
- Fold Induction of HMOX (Cpd. 0.039 uM, DMF 30 uM): 4.82 fold
- % Cells Positive HMOX (Cpd. 0.078 uM, DMF 0 uM): 8.23%
- Fold Induction of HMOX (Cpd. 0.078 uM, DMF 0 uM): 1.46 fold
- % Cells Positive HMOX (Cpd. 0.078 uM, DMF 0.03 uM): 1.72%
- Fold Induction of HMOX (Cpd. 0.078 uM, DMF 0.03 uM): 1.12 fold
- % Cells Positive HMOX (Cpd. 0.078 uM, DMF 0.1 uM): 7.05%
- Fold Induction of HMOX (Cpd. 0.078 uM, DMF 0.1 uM): 1.21 fold
- % Cells Positive HMOX (Cpd. 0.078 uM, DMF 0.3 uM): 10.31%
- Fold Induction of HMOX (Cpd. 0.078 uM, DMF 0.3 uM): 1.43 fold
- % Cells Positive HMOX (Cpd. 0.078 uM, DMF 1 uM): 29.42%
- Fold Induction of HMOX (Cpd. 0.078 uM, DMF 1 uM): 2.29 fold
- % Cells Positive HMOX (Cpd. 0.078 uM, DMF 3 uM): 55.22%
- Fold Induction of HMOX (Cpd. 0.078 uM, DMF 3 uM): 3.12 fold
- % Cells Positive HMOX (Cpd. 0.078 uM, DMF 10 uM): 94.55%
- Fold Induction of HMOX (Cpd. 0.078 uM, DMF 10 uM): 5.06 fold
- % Cells Positive HMOX (Cpd. 0.078 uM, DMF 30 uM): 86.84%
- Fold Induction of HMOX (Cpd. 0.078 uM, DMF 30 uM): 4.52 fold
- % Cells Positive HMOX (Cpd. 0.156 uM, DMF 0 uM): 11.32%
- Fold Induction of HMOX (Cpd. 0.156 uM, DMF 0 uM): 1.96 fold
- % Cells Positive HMOX (Cpd. 0.156 uM, DMF 0.03 uM): 8.51%
- Fold Induction of HMOX (Cpd. 0.156 uM, DMF 0.03 uM): 1.46 fold
- % Cells Positive HMOX (Cpd. 0.156 uM, DMF 0.1 uM): 18.49%
- Fold Induction of HMOX (Cpd. 0.156 uM, DMF 0.1 uM): 1.73 fold
- % Cells Positive HMOX (Cpd. 0.156 uM, DMF 0.3 uM): 30.11%
- Fold Induction of HMOX (Cpd. 0.156 uM, DMF 0.3 uM): 2.06 fold
- % Cells Positive HMOX (Cpd. 0.156 uM, DMF 1 uM): 57.70%
- Fold Induction of HMOX (Cpd. 0.156 uM, DMF 1 uM): 2.87 fold
- % Cells Positive HMOX (Cpd. 0.156 uM, DMF 3 uM): 79.63%
- Fold Induction of HMOX (Cpd. 0.156 uM, DMF 3 uM): 3.63 fold
- % Cells Positive HMOX (Cpd. 0.156 uM, DMF 10 uM): 99.72%
- Fold Induction of HMOX (Cpd. 0.156 uM, DMF 10 uM): 5.58 fold
- % Cells Positive HMOX (Cpd. 0.156 uM, DMF 30 uM): 98.17%
- Fold Induction of HMOX (Cpd. 0.156 uM, DMF 30 uM): 4.99 fold
- combination effect in terms of the % HMOX positive cells (combination with DMF at concentrations below their maximum effect (Table 2)): additive or greater than additive
- change of Hill slope of the DMF dose response curve (FIG. 5) (upon increasing amounts of the Bach1 Inhibitor): reduced

SMILES: COC(=O)/C=C/C(=O)OC [DMF, dimethyl fumarate, reference compound]
- Hill slope of DMF dose response curves in Table 2 (Bach1 Inhibitor Conc. 0 uM): 1.25 and 1.26
- % Cells Positive HMOX (Cpd. 0 uM, DMF 0.03 uM): 1.71%
- % Cells Positive HMOX (Cpd. 0 uM, DMF 0.1 uM): 1.21%
- % Cells Positive HMOX (Cpd. 0 uM, DMF 0.3 uM): 2.47%
- % Cells Positive HMOX (Cpd. 0 uM, DMF 1 uM): 4.38%
- % Cells Positive HMOX (Cpd. 0 uM, DMF 3 uM): 41.58%
- % Cells Positive HMOX (Cpd. 0 uM, DMF 10 uM): 74.35%
- % Cells Positive HMOX (Cpd. 0 uM, DMF 30 uM): 84.56%
- fold induction at 0.03 µM [1]: 1.04
- fold induction at 0.1 µM [1]: 1.06
- fold induction at 0.3 µM [1]: 1.14
- fold induction at 1 µM [1]: 1.39
- fold induction at 3 µM [1]: 2.76
- fold induction at 10 µM [1]: 4.45
- fold induction at 30 µM [1]: 6.19
